Experimental findings from US20240148821A1, “PHARMACEUTICAL USE OF CYCLIC PEPTIDE COMPOUND” (CHUGAI SEIYAKU KABUSHIKI KAISHA, priority 2021, published 2024) are described below.

Bridge positions count the residues as written; N and C are the ends. Square brackets hold non-standard residues; d marks the D form. Peptide text beside a SMILES is read from it. * marks the point of attachment. hPhe(3,5-F2-4-CF3) = N[C@@H](CCc1cc(F)c(C(F)(F)F)c(F)c1)C(=O)O; hPhe(3-Cl-4-CF3) = N[C@@H](CCc1ccc(C(F)(F)F)c(Cl)c1)C(=O)O; NMePhe(4-CF3) = CN[C@@H](Cc1ccc(C(F)(F)F)cc1)C(=O)O; Piperazinyl(4-(3-oxetanyl)) = C1OCC1N1CCN(*)CC1; Phe(2-F,5-Br) = N[C@@H](Cc1cc(Br)ccc1F)C(=O)O; 3Oxa8azabicyclo(3.2.1)octane = C1CC2COCC1N2*; NMeAbu(4,4,4-F3) = CN[C@@H](CC(F)(F)F)C(=O)O; Phe(2,6-F2) = N[C@@H](Cc1c(F)cccc1F)C(=O)O; NMeAla(cPent) = CN[C@@H](CC1CCCC1)C(=O)O; Pro(4,4-F2) = O=C(O)[C@@H]1CC(F)(F)CN1; NMeY = CN[C@@H](Cc1ccc(O)cc1)C(=O)O; NMeCha = CN[C@@H](CC1CCCCC1)C(=O)O; NMeChg = CN[C@H](C(=O)O)C1CCCCC1; NMeI = CC[C@H](C)[C@H](NC)C(=O)O; NMeD = CN[C@@H](CC(=O)O)C(=O)O; NMeL = CN[C@@H](CC(C)C)C(=O)O; d(β3hP) = O=C(O)C[C@H]1CCCN1; NMeAbu = CC[C@H](NC)C(=O)O; Morpholide = C1CN(*)CCO1; NMeA = CN[C@@H](C)C(=O)O; NMeAib = CNC(C)(C)C(=O)O; Nle = CCCC[C@H](N)C(=O)O; Piperidide = C1CCN(*)CC1; Pyrrolidide = C1CCN(*)C1; Ac5c = NC1(C(=O)O)CCCC1; Aze = O=C(O)[C@@H]1CCN1; Ac4c = NC1(C(=O)O)CCC1; Sar = CNCC(=O)O Some results are limits rather than exact numbers.

The test relates to Human pancreatic cancer cell line AsPC-1 (G12D mutation Kras). Briefly: AsPC-1 cell growth inhibition (AsPC-1 CGI). The test is classed as cell-based. Particulars: read-out: AsPC-1 cell growth inhibition, 50% growth inhibitory concentration (IC50 value); 96 hours, CellTiter-Glo, values classified in ranges.
Experimental: Test compounds were serially dilated with dimethyl sulfoxide, and 200 nL was then dispensed to a U-bottom 96-well plate using Labcyte Echo. […] The cell suspension was dispensed to a. plate containing a test compound at 100 μL per well and incubated at 37° C. in a 5% carbon dioxide gas incubator. 96 hours later, 80 μL of CellTiter-Glo (Promega) was added to each well and fluorescence was measured.
In the case of `CCCC[C@@H]1NC(=O)[C@H](Cc2cc(Br)ccc2F)NC(=O)CN(C)C(=O)[C@H](Cc2ccc(OC)cc2)N(C)C(=O)[C@@H]2CCN2C(=O)[C@H](C)N(C)C(=O)[C@H]([C@@H](C)CC)NC(=O)[C@H](CC)N(C)C(=O)C[C@@H](C(=O)N2CCCCC2)N(C)C(=O)[C@H](CC(C)C)NC(=O)C(C)(C)N(C)C1=O` [Compound 1177] ([NMeAbu]I[NMeA][Aze][NMeY](Me)[Sar][Phe(2-F,5-Br)][Nle][NMeAib]L[NMeD]-Piperidide; lactam N-11), the IC50 is greater than 500 nM.
`CC[C@H](C)[C@@H]1NC(=O)[C@H](CC(C)C)N(C)C(=O)C[C@@H](C(=O)N2C3CCC2COC3)N(C)C(=O)[C@H](C2CCCCC2)N(C)C(=O)C2(CCCC2)NC(=O)[C@@H]2CC(F)(F)CN2C(=O)[C@H](CCc2ccc(C(F)(F)F)c(Cl)c2)NC(=O)CN(C)C(=O)[C@H](CC2CCCCC2)N(C)C(=O)CN(C)C(=O)CN(C)C1=O` [Compound 1179] ([NMeL]I[Sar][Sar][NMeCha][Sar][hPhe(3-Cl-4-CF3)][Pro(4,4-F2)][Ac5c][NMeChg][NMeD]-{3Oxa8azabicyclo(3.2.1)octane}; lactam N-11): the IC50 is no more than 20 nM.
For `CC[C@H](C)[C@@H]1NC(=O)[C@H](CC(F)(F)F)N(C)C(=O)C[C@@H](C(=O)N2CCOCC2)N(C)C(=O)[C@H](C2CCCCC2)N(C)C(=O)C2(CCCC2)NC(=O)[C@@H]2CC(F)(F)CN2C(=O)[C@H](CCc2ccc(C(F)(F)F)c(Cl)c2)NC(=O)CN(C)C(=O)[C@H](Cc2ccc(C(F)(F)F)cc2)N(C)C(=O)CN(C)C(=O)CN(C)C1=O` [Compound 1182] ([NMeAbu(4,4,4-F3)]I[Sar][Sar][NMePhe(4-CF3)][Sar][hPhe(3-Cl-4-CF3)][Pro(4,4-F2)][Ac5c][NMeChg][NMeD]-Morpholide; lactam N-11), the IC50 is no more than 20 nM.
`CC[C@H](C)[C@@H]1NC(=O)[C@H](CC2CCCC2)N(C)C(=O)C[C@@H](C(=O)N2CCCC2)N(C)C(=O)[C@H]([C@@H](C)CC)N(C)C(=O)C2(CCCC2)NC(=O)[C@@H]2CCCN2C(=O)[C@H](CCc2ccc(C(F)(F)F)c(Cl)c2)NC(=O)CN(C)C(=O)[C@H](Cc2ccc(C(F)(F)F)cc2)N(C)C(=O)[C@@H]2CCN2C(=O)[C@H](C)N(C)C1=O` [Compound 1183] ([NMeAla(cPent)]I[NMeA][Aze][NMePhe(4-CF3)][Sar][hPhe(3-Cl-4-CF3)]P[Ac5c][NMeI][NMeD]-Pyrrolidide; lactam N-11): the IC50 was no more than 20 nM.
With `CC[C@H](C)[C@@H]1NC(=O)[C@H](CC(C)C)N(C)C(=O)C[C@H]2CCCN2C(=O)[C@H](C2CCCCC2)N(C)C(=O)C2(CCCC2)NC(=O)[C@@H]2CCCN2C(=O)[C@H](CCc2ccc(C(F)(F)F)c(Cl)c2)NC(=O)CN(C)C(=O)[C@H](CC2CCCCC2)N(C)C(=O)CN(C)C(=O)CN(C)C1=O` [Compound 1185] (cyclo([Ac5c][NMeChg][d(β3hP)][NMeL]I[Sar][Sar][NMeCha][Sar][hPhe(3-Cl-4-CF3)]P)), the IC50 was greater than 500 nM.
To `CC[C@H](C)[C@@H]1NC(=O)[C@H](CC(C)C)N(C)C(=O)C[C@@H](C(=O)N2CCCCC2)N(C)C(=O)[C@H](C2CCCCC2)N(C)C(=O)C2(CCCC2)NC(=O)[C@@H]2CCCN2C(=O)[C@H](CCc2ccc(C(F)(F)F)c(Cl)c2)NC(=O)CN(C)C(=O)[C@H](CC2CCCCC2)N(C)C(=O)[C@H](C)N(C)C(=O)CN(C)C1=O` [Compound 1186] ([NMeL]I[Sar][NMeA][NMeCha][Sar][hPhe(3-Cl-4-CF3)]P[Ac5c][NMeChg][NMeD]-Piperidide; lactam N-11) belongs greater than 500 nM; to `CCCC[C@@H]1NC(=O)[C@H](Cc2c(F)cccc2F)NC(=O)CN(C)C(=O)[C@H](Cc2ccc(OC)cc2)N(C)C(=O)[C@@H]2CCN2C(=O)[C@H](C)N(C)C(=O)[C@H]([C@@H](C)CC)NC(=O)[C@H](CC)N(C)C(=O)C[C@@H](C(=O)N2CCCCC2)N(C)C(=O)[C@H](CC(C)C)NC(=O)C(C)(C)N(C)C1=O` [Compound 1187] ([NMeAbu]I[NMeA][Aze][NMeY](Me)[Sar][Phe(2,6-F2)][Nle][NMeAib]L[NMeD]-Piperidide; lactam N-11), greater than 500 nM; to `CC[C@H](C)[C@@H]1NC(=O)[C@H](CC(C)C)N(C)C(=O)C[C@@H](C(=O)N2CCN(C3COC3)CC2)NC(=O)[C@H]([C@@H](C)CC)N(C)C(=O)C2(CCCC2)NC(=O)[C@@H]2CCCN2C(=O)[C@H](CCc2ccc(C(F)(F)F)c(Cl)c2)NC(=O)CN(C)C(=O)[C@H](CC2CCCCC2)N(C)C(=O)CN(C)C(=O)CN(C)C1=O` [Compound 1191] ([NMeL]I[Sar][Sar][NMeCha][Sar][hPhe(3-Cl-4-CF3)]P[Ac5c][NMeI]D-{Piperazinyl(4-(3-oxetanyl))}; lactam N-11), greater than 500 nM.
As to `CC[C@H](C)[C@@H]1NC(=O)[C@H](CC(C)C)N(C)C(=O)C[C@@H](C(=O)N2CCCC2)N(C)C(=O)[C@H](C2CCCCC2)N(C)C(=O)C2(CCC2)NC(=O)[C@@H]2CC(F)(F)CN2C(=O)[C@H](CCc2cc(F)c(C(F)(F)F)c(F)c2)NC(=O)CN(C)C(=O)[C@H](CC2CCCCC2)N(C)C(=O)CN(C)C(=O)CN(C)C1=O` [Compound 1192] ([NMeL]I[Sar][Sar][NMeCha][Sar][hPhe(3,5-F2-4-CF3)][Pro(4,4-F2)][Ac4c][NMeChg][NMeD]-Pyrrolidide; lactam N-11), the IC50 is no more than 20 nM.
